This note sets out measurements from US20130109693A1, “DERIVATIVES OF PYRIDO [3,2-D] PYRIMIDINE, METHODS FOR PREPARATION THEREOF AND THERAPEUTIC USES THEREOF” (UNIVERSITE D'ORLEANS, priority 2010, published 2013).

One series deals with Huh7. The experiment in a line: Cytotoxicity on human cells, Huh7 (liver). The class given is cell-based. Conditions: Huh-7, human cells, exposed 24 h and 48 h, 0.1 to 25 μM. In short, it runs like this: (§1)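 Cells at 4.10^3 per well, attached 24 h, then exposed 24 h and 48 h to 0.1–25 μM compound in DMEM or RPMI with 10% foetal calf serum, 37° C., 5% CO2; DMSO at most 1%. Viability read by Hoechst-stained nuclear counts after paraformaldehyde fixation and by MTS reduction.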

For another series, the system named is Caco. The experiment in a line: Cytotoxicity on human cells, Caco (colon). It is filed as cell-based. Conditions: exposed 24 h and 48 h, 0.1 to 25 μM. In short, it runs like this:
as §1

For a further series, the system named is MDA-MB 231. The experiment in a line: Cytotoxicity on human cells, MDA-MB 231 (breast). Conditions: MDA-MB-231, human cells, exposed 24 h and 48 h, 0.1 to 25 μM. The class given is cell-based. In short, it runs like this: as §1
For the next series, the system named is HCT 116. The experiment in a line: Cytotoxicity on human cells, HCT 116 (colon). The class given is cell-based. Conditions: exposed 24 h and 48 h, 0.1 to 25 μM. In a few lines: as §1
A further series deals with PC3. The experiment in a line: Cytotoxicity on human cells, PC3 (prostate). The class given is cell-based. Particulars: PC-3, human cells, exposed 24 h and 48 h, 0.1 to 25 μM. In a few lines: as §1
The subject of a further series is NCI. The experiment in a line: Cytotoxicity on human cells, NCI (lung). The class given is cell-based. Particulars: exposed 24 h and 48 h, 0.1 to 25 μM. In a few lines: as §1
A further series deals with fibroblast. The experiment in a line: Cytotoxicity on human cells, fibroblast. Conditions: exposed 24 h and 48 h, 0.1 to 25 μM. It is filed as cell-based. In short, it runs like this: as §1
The next series deals with DYRK1A (Homo sapiens, UniProt Q13627). The experiment in a line: DYRK1A kinase inhibition (Woodtide substrate, buffer A). It is filed as biochemical. Particulars: 15 μM ATP, 30° C., recombinant GST fusion; read-out: IC50 Kinases DYRK1A. In short, it runs like this:
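Kinase activity measured in buffer A (10 mM MgCl2, 1 mM EGTA, 1 mM DTT, 25 mM Tris-HCl pH 7.5, 50 μg/mL heparin) at 30° C with 15 μM final ATP. Blanks subtracted; activity expressed as % of maximum activity without inhibitor, with DMSO dilutions as controls.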

In another series the target is T1, CDK5 (Homo sapiens, UniProt Q00535).
T1 construct: made in house
The experiment in a line: CDK5 kinase inhibition (histone H1, [γ-33P] ATP, buffer C). The class given is biochemical. Conditions: 15 μM ATP, 30° C., recombinant; read-out: IC50 Kinases CDK5. In a few lines: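 Recombinant human CDK5 phosphorylating histone H1 (1 mg/mL) in buffer C (25 mM Mops pH 7.2, 15 mM MgCl2, 1 mM DTT) with 15 μM [γ-33P]ATP, 30 min at 30 °C. Incorporation counted on P81 phosphocellulose; activity as % of uninhibited control after blank subtraction.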

A further series has as its target GSK-3αβ. The experiment in a line: GSK-3αβ kinase inhibition (GS-1 substrate, buffer A). It is filed as biochemical. Conditions: 15 μM ATP, 30° C., native, pig brain; read-out: IC50 Kinases GSK3. In short, it runs like this:
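Native pig-brain GSK-3αβ with GS-1 phosphopeptide substrate in buffer A (25 mM Tris-HCl pH 7.5, 10 mM MgCl2, 1 mM EGTA, 1 mM DTT, 50 μg/mL heparin), 1 mg/mL histone H1 and 15 μM [γ-33P]ATP, 30 min at 30° C. Phosphocellulose filter binding counted; activity as % of uninhibited maximum, blank subtracted.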

T1 sequence (Q00535 whole entry): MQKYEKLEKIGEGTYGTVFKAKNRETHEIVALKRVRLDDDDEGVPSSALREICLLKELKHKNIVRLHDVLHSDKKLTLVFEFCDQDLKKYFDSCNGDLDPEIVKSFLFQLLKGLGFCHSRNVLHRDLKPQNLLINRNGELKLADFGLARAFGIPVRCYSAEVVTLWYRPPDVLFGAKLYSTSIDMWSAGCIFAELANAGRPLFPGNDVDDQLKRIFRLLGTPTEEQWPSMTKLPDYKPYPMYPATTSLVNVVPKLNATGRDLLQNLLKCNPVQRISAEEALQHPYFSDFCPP
T1 sequence (Q15078 99-307 partner limits assumed): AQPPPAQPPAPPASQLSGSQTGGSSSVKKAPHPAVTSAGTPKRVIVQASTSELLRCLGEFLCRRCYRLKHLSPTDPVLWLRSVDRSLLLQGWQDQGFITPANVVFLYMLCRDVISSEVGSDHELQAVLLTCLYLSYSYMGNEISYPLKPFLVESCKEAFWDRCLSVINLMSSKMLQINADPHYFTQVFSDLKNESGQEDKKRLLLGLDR

As a reminder, the IC50 is the concentration that gives 50% inhibition. Usually melting point stands for the temperature of the solid-liquid transition. As to `Oc1ccc(Nc2ncc3ncc(-c4cccc(O)c4)cc3n2)cc1` [Compound 61, 2-(4-Hydroxyphenylamino)-7-(3-hydroxyphenyl)-pyrido[3,2-d]pyrimidine], the melting point is more than 268 °C. In the series with Huh7, this compound came in with an IC50 of 10 µM. Further, the IC50 with Caco was found to be 12 µM. The compound further came in with an IC50 in the series on MDA-MB 231 of 9 µM. This compound came in with an IC50 in the series on HCT 116 of 12 µM. Moreover, the IC50 in the series with PC3 came to 7 µM. Further, in the series on NCI, the half-maximal inhibitory concentration (IC50) came to 4 µM. Half-maximal inhibition in the series with fibroblast (IC50) required 2 µM. Further, the IC50 at DYRK1A was more than 10 µM. Further, the IC50 at CDK5 is 0.71 µM. Also, the IC50 on GSK-3αβ amounted to 4.5 µM.

Take `Oc1ccc(Nc2ncc3ncc(-c4ccc(O)cc4)cc3n2)cc1` [Compound 62, 2-(4-Hydroxyphenylamino)-7-(4-hydroxyphenyl)-pyrido[3,2-d]pyrimidine]: the melting point was more than 268 °C. For the same compound, in the series on Huh7, inhibition was half-maximal at 12 µM (IC50). Besides, the IC50 with Caco amounted to 15 µM. Also, in the series with MDA-MB 231, the IC50 came out at 10 µM. Besides, the IC50 with HCT 116 amounted to 12 µM. In addition, in the series on PC3, the IC50 stood at 15 µM. Further, the IC50 in the series with NCI came to 4 µM. This compound gave an IC50 in the series on fibroblast of 5 µM. For the same compound, the IC50 on DYRK1A is more than 10 µM. The IC50 on CDK5 amounted to 0.84 µM. Also, at GSK-3αβ, the IC50 stood at 7.1 µM.

As to `COc1ccc(Nc2cnc3c(NCc4ccccc4)nc(NCCO)nc3c2)cc1OC` [Compound 85, 4-Benzylamino-7-(3,4-dimethoxyphenylamino)-2-(2-hydroxyethylamino)-pyrido[3,2-d]pyrimidine], the melting point lay in the range of 149 to 150 °C. In the series on Huh7, this compound had an IC50 of 1.5 µM. The compound also returned an IC50 with Caco of 4 µM. This compound also registered an IC50 in the series on MDA-MB 231 of 15 µM. In the series with HCT 116, this compound displayed an IC50 of 4 µM. Besides, in the series on PC3, half-maximal inhibition (IC50) required 4 µM. In the series on NCI, this compound showed an IC50 of 2 µM. This compound gave an IC50 in the series on fibroblast of 5 µM. For the same compound, the IC50 on DYRK1A is more than 10 µM. Moreover, the IC50 on CDK5 is more than 10 µM. Besides, the IC50 at GSK-3αβ was more than 10 µM.

Turning to `CC(=O)c1ccc(Nc2cnc3c(NCc4ccccc4)nc(NCCO)nc3c2)cc1` [Compound 86, 4-Benzylamino-7-(4-acetylphenylamino)-2-(2-hydroxyethylamino)-pyrido[3,2-d]pyrimidine], the melting point lay within 125 to 126 °C. This compound registered an IC50 in the series with Huh7 of 2 µM. The same compound yielded an IC50 with Caco of 3 µM. In the series with MDA-MB 231, this compound had an IC50 of 15 µM. Besides, inhibition in the series on HCT 116 was half-maximal at 1 µM (IC50). Moreover, in the series with PC3, the IC50 was 3 µM. Also, the IC50 in the series on NCI came to 2 µM. In the series on fibroblast, this compound returned an IC50 of 5 µM. Moreover, at DYRK1A, the IC50 is more than 10 µM. The IC50 at CDK5 was more than 10 µM. On GSK-3αβ, the IC50 is more than 10 µM.
